Tests used:
[1] = Relative activity of the components of the LL-14E605 complex; conditions: listed as LL-14E605β
[2] = system: Enterococcus faecalis (ID-2131); test: In vitro antibacterial activity, standard agar dilution (MIC); type: cell-based; conditions: Mueller-Hinton agar, about 18 hours, approximately 35° C.
Procedure: (§1) The in vitro antibacterial activity of LL-14E605β and O-methyl-LL-14E605β is determined against a spectrum of gram positive and gram-negative bacteria by a standard agar dilution method. Mueller-Hinton agar containing two fold decreasing concentrations of the antibiotics is poured into petri plates. The agar surfaces are inoculated with 1 to 5×10^4 colony forming units of bacteria by means of a Steer's replicating device. The lowest concentration of the LL-14E605 antibiotics that inhibits growth of a bacterial strain after about 18 hours of incubation at approximately 35° C. is recorded as the minimal inhibitory concentration (MIC) for that strain.

[3] = system: Enterococcus faecium (12202); test: as above; type: cell-based; conditions: Mueller-Hinton agar, about 18 hours, approximately 35° C.
Procedure: as §1

[4] = system: Enterococcus faecalis (ID-4168); test: as above; type: cell-based; conditions: Mueller-Hinton agar, about 18 hours, approximately 35° C.
Procedure: as §1

[5] = system: Enterococcus faecalis (ATCC 29212); test: as above; type: cell-based; conditions: Mueller-Hinton agar, about 18 hours, approximately 35° C.
Procedure: as §1

[6] = system: Pseudomanas aeruginosa (ATCC 27853); test: as above; type: cell-based; conditions: Mueller-Hinton agar, about 18 hours, approximately 35° C.
Procedure: as §1

[7] = system: Staphylococcus, coagiuase negative (ID-4615); test: as above; type: cell-based; conditions: Mueller-Hinton agar, about 18 hours, approximately 35° C.
Procedure: as §1

[8] = system: Staphylococcus, coagluase negative (ID-3120); test: as above; type: cell-based; conditions: Mueller-Hinton agar, about 18 hours, approximately 35° C.
Procedure: as §1

[9] = system: Staphylococcus, coagluase negative (ID-3941); test: as above; type: cell-based; conditions: Mueller-Hinton agar, about 18 hours, approximately 35° C.
Procedure: as §1

[10] = system: Bacillus cereus (Bacto); test: as above; type: cell-based; conditions: Mueller-Hinton agar, about 18 hours, approximately 35° C.
Procedure: as §1

[11] = system: Staphylococcus aureus (ID-2727); test: as above; type: cell-based; conditions: Mueller-Hinton agar, about 18 hours, approximately 35° C.
Procedure: as §1

[12] = system: Enterococcus avium (ID-3953); test: as above; type: cell-based; conditions: Mueller-Hinton agar, about 18 hours, approximately 35° C.
Procedure: as §1

[13] = system: Staphylococcus hemolyticus (ID 4061); test: as above; type: cell-based; conditions: Mueller-Hinton agar, about 18 hours, approximately 35° C.
Procedure: as §1

[14] = system: Escherichia coli (J2445); test: as above; type: cell-based; conditions: Mueller-Hinton agar, about 18 hours, approximately 35° C.
Procedure: as §1

[15] = system: Staphylococcus aureus (ID-3105); test: as above; type: cell-based; conditions: Mueller-Hinton agar, about 18 hours, approximately 35° C.
Procedure: as §1

[16] = system: Staphylococcus aureus (ATCC 29213); test: as above; type: cell-based; conditions: Mueller-Hinton agar, about 18 hours, approximately 35° C.
Procedure: as §1

[17] = system: Enterococcus faecium (ID-4133); test: as above; type: cell-based; conditions: Mueller-Hinton agar, about 18 hours, approximately 35° C.
Procedure: as §1

[18] = system: Staphylococcus, coagluase negative (ID-3276); test: as above; type: cell-based; conditions: Mueller-Hinton agar, about 18 hours, approximately 35° C.
Procedure: as §1

[19] = system: Enterococcus faecalis (ID-1829); test: as above; type: cell-based; conditions: Mueller-Hinton agar, about 18 hours, approximately 35° C.
Procedure: as §1

[20] = system: Enterococcus faecalis (12201); test: as above; type: cell-based; conditions: Mueller-Hinton agar, about 18 hours, approximately 35° C.
Procedure: as §1

[21] = system: Staphylococcus aureus (4379); test: as above; type: cell-based; conditions: Mueller-Hinton agar, about 18 hours, approximately 35° C.
Procedure: as §1

[22] = system: Enterococcus faecium (ID-3301); test: as above; type: cell-based; conditions: Mueller-Hinton agar, about 18 hours, approximately 35° C.
Procedure: as §1

[23] = system: Escherichia coli (ATCC 25922); test: as above; type: cell-based; conditions: Mueller-Hinton agar, about 18 hours, approximately 35° C.
Procedure: as §1

[24] = system: Staphylococcus aureus (NEMC-89-4); test: as above; type: cell-based; conditions: Mueller-Hinton agar, about 18 hours, approximately 35° C.
Procedure: as §1

[25] = system: Morganella morganii (VGH 84-11); test: as above; type: cell-based; conditions: Mueller-Hinton agar, about 18 hours, approximately 35° C.
Procedure: as §1

[26] = system: Micrococcus luteus (ATCC 9341); test: as above; type: cell-based; conditions: Mueller-Hinton agar, about 18 hours, approximately 35° C.
Procedure: as §1

[27] = system: Staphylococcus aureus (ID-2371); test: as above; type: cell-based; conditions: Mueller-Hinton agar, about 18 hours, approximately 35° C.
Procedure: as §1

[28] = system: Staphylococcus, coagluase negative (ID-3135); test: as above; type: cell-based; conditions: Mueller-Hinton agar, about 18 hours, approximately 35° C.
Procedure: as §1

[29] = system: Escherichia coli (J2175); test: as above; type: cell-based; conditions: Mueller-Hinton agar, about 18 hours, approximately 35° C.
Procedure: as §1

[30] = system: Staphylococcus aureus (SMITH); test: as above; type: cell-based; conditions: Mueller-Hinton agar, about 18 hours, approximately 35° C.
Procedure: as §1

## COC(C)=C1NC(=O)C(C(C)O)NC(=O)c2csc(n2)-c2cc(O)c(-c3nc(C(N)=O)cs3)nc2-c2csc(n2)C2CSC(=O)c3[nH]c4cccc5c4c3COC(C(OC3CC(C)(O)C(N(C)C)C(C)O3)C(=O)OC5)C(NC(=O)c3csc1n3)c1nc(cs1)C(=O)N2 (stereo not drawn) [LL-14E605-beta]
[1]
  activity relative to the other components of the LL-14E605 complex: most active component of the LL-14E605 complex
[2]
  Minimal Inhibitory Concentration (MIC): 0.015 µg/mL
[3]
  Minimal Inhibitory Concentration (MIC): 0.004 µg/mL
[4]
  Minimal Inhibitory Concentration (MIC): 0.015 µg/mL
[5]
  Minimal Inhibitory Concentration (MIC): 0.015 µg/mL
[6]
  Minimal Inhibitory Concentration (MIC): > 64 µg/mL
[7]
  Minimal Inhibitory Concentration (MIC): 0.015 µg/mL
[8]
  Minimal Inhibitory Concentration (MIC): 0.06 µg/mL
[9]
  Minimal Inhibitory Concentration (MIC): 0.06 µg/mL
[10]
  Minimal Inhibitory Concentration (MIC): 0.06 µg/mL
[11]
  Minimal Inhibitory Concentration (MIC): 0.008 µg/mL
[12]
  Minimal Inhibitory Concentration (MIC): 0.002 µg/mL
[13]
  Minimal Inhibitory Concentration (MIC): 0.03 µg/mL
[14]
  Minimal Inhibitory Concentration (MIC): 0.06 µg/mL
[15]
  Minimal Inhibitory Concentration (MIC): 0.015 µg/mL
[16]
  Minimal Inhibitory Concentration (MIC): 0.015 µg/mL
[17]
  Minimal Inhibitory Concentration (MIC): ≤ 0.005 µg/mL
[18]
  Minimal Inhibitory Concentration (MIC): 0.008 µg/mL
[19]
  Minimal Inhibitory Concentration (MIC): 0.002 µg/mL
[20]
  Minimal Inhibitory Concentration (MIC): 0.015 µg/mL
[21]
  Minimal Inhibitory Concentration (MIC): 0.015 µg/mL
[22]
  Minimal Inhibitory Concentration (MIC): 0.015 µg/mL
[23]
  Minimal Inhibitory Concentration (MIC): > 64 µg/mL
[24]
  Minimal Inhibitory Concentration (MIC): 0.015 µg/mL
[25]
  Minimal Inhibitory Concentration (MIC): > 64 µg/mL
[26]
  Minimal Inhibitory Concentration (MIC): 0.002 µg/mL
[27]
  Minimal Inhibitory Concentration (MIC): 0.015 µg/mL
[28]
  Minimal Inhibitory Concentration (MIC): 0.03 µg/mL
[29]
  Minimal Inhibitory Concentration (MIC): > 64 µg/mL
[30]
  Minimal Inhibitory Concentration (MIC): 0.008 µg/mL

## COC(C)=C1NC(=O)C(C(C)O)NC(=O)c2csc(n2)-c2cc(OC)c(-c3nc(C(N)=O)cs3)nc2-c2csc(n2)C2CSC(=O)c3[nH]c4cccc5c4c3COC(C(OC3CC(C)(O)C(N(C)C)C(C)O3)C(=O)OC5)C(NC(=O)c3csc1n3)c1nc(cs1)C(=O)N2 [O-methyl-L-14E605beta]
[2]
  Minimal Inhibitory Concentration (MIC): 4 µg/mL
[3]
  Minimal Inhibitory Concentration (MIC): 8 µg/mL
[4]
  Minimal Inhibitory Concentration (MIC): 8 µg/mL
[5]
  Minimal Inhibitory Concentration (MIC): 8 µg/mL
[6]
  Minimal Inhibitory Concentration (MIC): > 32 µg/mL
[7]
  Minimal Inhibitory Concentration (MIC): 0.25 µg/mL
[8]
  Minimal Inhibitory Concentration (MIC): 1 µg/mL
[9]
  Minimal Inhibitory Concentration (MIC): 4 µg/mL
[10]
  Minimal Inhibitory Concentration (MIC): 0.5 µg/mL
[11]
  Minimal Inhibitory Concentration (MIC): 0.25 µg/mL
[12]
  Minimal Inhibitory Concentration (MIC): 8 µg/mL
[13]
  Minimal Inhibitory Concentration (MIC): 1 µg/mL
[14]
  Minimal Inhibitory Concentration (MIC): > 32 µg/mL
[15]
  Minimal Inhibitory Concentration (MIC): 0.25 µg/mL
[16]
  Minimal Inhibitory Concentration (MIC): 0.25 µg/mL
[17]
  Minimal Inhibitory Concentration (MIC): 8 µg/mL
[18]
  Minimal Inhibitory Concentration (MIC): 0.5 µg/mL
[19]
  Minimal Inhibitory Concentration (MIC): 8 µg/mL
[20]
  Minimal Inhibitory Concentration (MIC): 4 µg/mL
[21]
  Minimal Inhibitory Concentration (MIC): 0.25 µg/mL
[22]
  Minimal Inhibitory Concentration (MIC): 8 µg/mL
[23]
  Minimal Inhibitory Concentration (MIC): > 32 µg/mL
[24]
  Minimal Inhibitory Concentration (MIC): 0.5 µg/mL
[25]
  Minimal Inhibitory Concentration (MIC): > 32 µg/mL
[26]
  Minimal Inhibitory Concentration (MIC): 0.5 µg/mL
[27]
  Minimal Inhibitory Concentration (MIC): 0.5 µg/mL
[28]
  Minimal Inhibitory Concentration (MIC): 1 µg/mL
[29]
  Minimal Inhibitory Concentration (MIC): > 32 µg/mL
[30]
  Minimal Inhibitory Concentration (MIC): 0.25 µg/mL
